Measured values as given in US8901165B2, “Alkoxylated glycerol acetals and their derivatives” (Cognis IP Management GmbH, priority 2009, dated 2014).

Assays:
[1] = Foam potential, SITA foam tester R-2000; assay type: physicochemical; conditions: 0.1% aqueous solution/dispersion
Experimental: (§1) Foam properties and surface tension of various alkoxylated glycerol acetals were compared with data obtained from conventional fatty alcohol alkoxylates at 0.1 and 0.25% b.w. concentration, respectively. Foam potential was tested with SITA foam tester R-2000, available from SITA Messtechnik GmbH, Gostritzer Str. 61-63, 01217 Dresden, Germany. Dynamic surface tension was determined with the tensiometer SITA science line t60, ibid.

[2] = Dynamic and quasi-static surface tension, tensiometer SITA science line t60; assay type: physicochemical; conditions: for Surface Tension at 0.1 Hz: bubble frequency 0.1 Hz (quasi-static); for Surface Tension at 10 Hz: bubble frequency 10 Hz (dynamic)
Source text: Quasi-Static or equilibrium surface tension at an air-liquid interface can be determined by the Du Noüy ring method, the Wilhelmy plate or the like. […] To avoid such problems, a dynamic method is used but the frequency is reduced to 0.1 Hz or less, thus close enough to equilibrium conditions. […] The products therefore fulfill the complex profile as explained above perfectly.
as §1

[3] = 0.1% aqueous solution/dispersion
[4] = 0.25% aqueous solution/dispersion

Substance	Foam after 1 min [1] [mL]	Foam after 5 min [1] [mL]	Surface Tension at 0.1 Hz [2, 3] [mN/m]	Surface Tension at 10 Hz [2, 3] [mN/m]	Surface Tension at 0.1 Hz [2, 4] [mN/m]	Surface Tension at 10 Hz [2, 4] [mN/m]
iso-nonyl glycerol acetal+3PO+3EO [Example 5]	0	0	31	43	–	–
iso-nonyl glycerol acetal+3PO+3EO [Example 13]	–	–	–	–	29	36
n-decyl glycerol acetal+4PO+4EO [Example 2]	100	80	30	52	–	–
n-decyl glycerol acetal+4PO+4EO [Example 3]	120	110	31	50	–	–
n-decyl glycerol acetal+4PO+4EO [Example 10]	–	–	–	–	32	38
n-decyl glycerol acetal+4PO+4EO [Example 11]	–	–	–	–	31	44
n-octyl glycerol acetal+4PO+4EO [Example 1]	30	25	32	44	–	–
n-octyl glycerol acetal+4PO+4EO [Example 9]	–	–	–	–	32	39

The next lines start with the values.

Foam after 1 min [1] [mL]	Foam after 5 min [1] [mL]	Surface Tension at 0.1 Hz [2, 3] [mN/m]	Surface Tension at 10 Hz [2, 3] [mN/m]	Surface Tension at 0.1 Hz [2, 4] [mN/m]	Surface Tension at 10 Hz [2, 4] [mN/m]	Substance
190	170	26	40	–	–	Decanol + 5EO [Example C2, reference compound]
–	–	–	–	26	33	Decanol + 5EO [Example C4, reference compound]
225	210	27	40	–	–	Isodecanol + 6EO [Example C1, reference compound]
–	–	–	–	27	34	Isodecanol + 6EO [Example C3, reference compound]
